Here are results for 19 compounds from patent US20220289732A1, “HETEROCYCLIC WDR5 INHIBITORS AS ANTI-CANCER COMPOUNDS” (NOVARTIS AG, priority 2019, published 2022).

Test [1] deals with wild type MLL1 four-member complex (MLL1-4C) (Homo sapiens, UniProt P61964). The test can be described thus: MLL1 LC-MS assay (SAH production). Format: biochemical. The settings on record: read-out: (b) MLL LCMS Peptide Val.v.1 Qualified AC50. An outline of the steps:
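SAH formation, measured by LC-MS/MS after a TFA quench containing d4-SAH, was normalised to no-compound and no-enzyme controls and fitted to a dose-response curve for IC50. Reactions ran 120 min at rt (pH 8.0 Tris buffer) with final 30 nM MLL1 four-member complex, 2.5 μM SAM and 10 μM biotinylated H3[1-21] peptide, after a 20-min enzyme/SAM-compound preincubation.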

Test [2] relates to MV4-11 cells. As to the kind of experiment: MV4-11 6-day cell growth CTG (CellTiter-Glo) assay. Format: cell-based. The conditions noted are these: Homo sapiens, MV4-11, 144 h, 6 days, read-out: (c) MLL/WDR5 cell proliferation assay//MLL/WDR5 proliferation MV4:11 Qualified AC50. In outline: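 IC50 comes from a dose-response fit of % inhibition relative to DMSO controls, with viable cells measured by CellTiter-Glo luminescence. Compounds were tested over 12 points (1:3, starting at 50 μM final) on MV4-11 cells plated at 300/well and grown 6 days.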

Test [3] addresses WDR5 (Homo sapiens, UniProt P61964). As to the kind of experiment: WDR5 HTRF binding assay. The settings on record: read-out: (a) WDR5 HTRF Pep Val v.1[Inhibitor/IC50]Qualified AC50. In outline:
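In this HTRF displacement format, biotinylated MLL1 WIN peptide (3762-3773, 20 nM) binds WDR5 (6 nM) in 25 mM Hepes pH 7.5 with 100 mM NaCl, 2 mM DTT and 0.1% BSA for 20 min at rt. Detection used streptavidin-APC/anti-His-Eu for 1 hr. IC50 came from dose-response fits of normalized signal; 15 nM biotin-PEG-His peptide served as counter assay.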

With `CCOc1cc(C(C)N2CCc3c(cc(CCN(C)CC)cc3-c3cc(C)nnc3C)C2=O)ncc1C` (stereo not drawn) [Example 211, 5-(3,6-dimethylpyridazin-4-yl)-2-(1-(4-ethoxy-5-methylpyridin-2-yl)ethyl)-7-(2-(ethyl(methyl)amino)ethyl)-3,4-dihydroisoquinolin-1(2H)-one], the AC50 in test [1] and in test [2] was 10 to 1000 nM in each case. The IC50 in test [3] is less than 10 nM.
On to `CCN(C)CCc1cc2c(c(-c3cn(C)nc3C(F)F)c1)CCN(C(C)c1cnc(F)c(OC)c1)C2=O` (stereo not drawn) [Example 146, 5-(3-(difluoromethyl)-1-methyl-1H-pyrazol-4-yl)-7-(2-(ethyl(methyl)amino)ethyl)-2-(1-(6-fluoro-5-methoxypyridin-3-yl)ethyl)-3,4-dihydroisoquinolin-1(2H)-one], for which the AC50 in test [1] and in test [2] was 10 to 1000 nM throughout. In addition, the IC50 in test [3] is 10 to 1000 nM.
In the case of `CCOc1cc([C@H](C)N2CCc3c(cc(CCN4C[C@@H](O)[C@H]4C)cc3-c3cc(C(F)F)cnc3C)C2=O)ncc1C#N` [Example 218], the AC50 in test [1] and in test [2] was 10 to 1000 nM each time. For the same compound, in test [3], the IC50 was less than 10 nM.
Turning to `CCOc1cc(C(C)N2CCc3c(cc(CCN(C)CC)cc3-c3ccnc(F)c3C)C2=O)ncc1C#N` (stereo not drawn) [Example 141, 4-ethoxy-6-(1-(7-(2-(ethyl(methyl)amino)ethyl)-5-(2-fluoro-3-methylpyridin-4-yl)-1-oxo-3,4-dihydroisoquinolin-2(1H)-yl)ethyl)nicotinonitrile], the AC50 in test [1] and in test [2] was 10 to 1000 nM throughout. The IC50 in test [3] lay within 10 to 1000 nM.
As to `CNc1nccn1Cc1cc(CN2CC(O)C2)c2c(c1)C(=O)N([C@@H](C)c1cc(OC)c(F)cn1)CC2` (single isomer, unassigned) [Example 51], the AC50 in test [1] and in test [2] was 10 to 1000 nM throughout. Moreover, the IC50 in test [3] is less than 10 nM.
With `CNc1nccn1Cc1cc2c(c(-c3cn(C)nc3C)c1)CCN([C@@H](C)c1cc(OC)c(F)cn1)C2=O` [Example 62, (S)-5-(1,3-dimethyl-1H-pyrazol-4-yl)-2-(1-(5-fluoro-4-methoxypyridin-2-yl)ethyl)-7-((2-(methylamino)-1H-imidazol-1-yl)methyl)-3,4-dihydroisoquinolin-1(2H)-one], the AC50 in test [1] and in test [2] was 10 to 1000 nM in each case. For the same compound, the IC50 in test [3] was in the range of 10 to 1000 nM.
As to `CCOc1cc([C@H](C)N2CCc3c(CN4CC(F)C4)cc(Cn4ccnc4NC)cc3C2=O)ncc1F` [Example 39, (S)-2-(1-(4-ethoxy-5-fluoropyridin-2-yl)ethyl)-5-((3-fluoroazetidin-1-yl)methyl)-7-((2-(methylamino)-1H-imidazol-1-yl)methyl)-3,4-dihydroisoquinolin-1(2H)-one], the AC50 in test [1] and in test [2] was 10 to 1000 nM in each case. The IC50 in test [3] was 10 to 1000 nM.
For `CCOc1cc([C@H](C)N2CCc3c(cc(CCN4C[C@@H](O)[C@H]4C)cc3-c3ccc(N)nc3C)C2=O)ncc1C#N` [Example 219], the AC50 in test [1] and in test [2] was 10 to 1000 nM in each case. Besides, in test [3], the IC50 is less than 10 nM.
For `CCOc1cc(CN2CCc3c(CN(C)C4CC4)cc(Cn4ccnc4NC)cc3C2=O)cnc1C#N` [Example 26, 5-((5-((cyclopropyl(methyl)amino)methyl)-7-((2-(methylamino)-1H-imidazol-1-yl)methyl)-1-oxo-3,4-dihydroisoquinolin-2(1H)-yl)methyl)-3-ethoxypicolinonitrile], the AC50 in test [1] and in test [2] was 10 to 1000 nM in each case. The IC50 in test [3] lay within 10 to 1000 nM.
With `CCOc1cc(C(C)N2CCc3c(cc(CCN(C)CC)cc3-c3cc(OC)ncc3Cl)C2=O)ncc1C#N` (stereo not drawn) [Example 136, 6-(1-(5-(5-chloro-2-methoxypyridin-4-yl)-7-(2-(ethyl(methyl)amino)ethyl)-1-oxo-3,4-dihydroisoquinolin-2(1H)-yl)ethyl)-4-ethoxynicotinonitrile], the AC50 in test [1] and in test [2] was 10 to 1000 nM each time. The IC50 in test [3] was less than 10 nM.
`CCOc1cc([C@H](C)N2CCc3c(cc(CCN(C)CC)cc3-c3cc(N)ncc3C)C2=O)ncc1C#N` [Example 162, (S)-6-(1-(5-(2-amino-5-methylpyridin-4-yl)-7-(2-(ethyl(methyl)amino)ethyl)-1-oxo-3,4-dihydroisoquinolin-2(1H)-yl)ethyl)-4-ethoxynicotinonitrile]: the AC50 in test [1] and in test [2] was 10 to 1000 nM throughout. The IC50 in test [3] is less than 10 nM.
Turning to `CCOc1cc([C@H](C)N2CCc3c(cc(CCN(C)CC(C)O)cc3-c3ccc(F)nc3C)C2=O)ncc1C#N` (stereo partly drawn) [Example 242], the AC50 in test [1] and in test [2] was 10 to 1000 nM each time. Also, in test [3], the IC50 was 10 to 1000 nM.
Turning to `CNc1nccn1Cc1cc2c(c(-c3cn(C)nc3C(F)(F)F)c1)CCN(Cc1cc(OC)c(F)cn1)C2=O` [Example 64, 2-((5-fluoro-4-methoxypyridin-2-yl)methyl)-5-(1-methyl-3-(trifluoromethyl)-1H-pyrazol-4-yl)-7-((2-(methylamino)-1H-imidazol-1-yl)methyl)-3,4-dihydroisoquinolin-1(2H)-one], the AC50 in test [1] and in test [2] was 10 to 1000 nM throughout. Moreover, the IC50 in test [3] lay within 10 to 1000 nM.
On to `CCN(C)CCc1cc2c(c(-c3cn(C)nc3C)c1)CCN([C@@H](C)c1cc(OC)c(F)cn1)C2=O` [Example 113, (S)-5-(1,3-dimethyl-1H-pyrazol-4-yl)-7-(2-(ethyl(methyl)amino)ethyl)-2-(1-(5-fluoro-4-methoxypyridin-2-yl)ethyl)-3,4-dihydroisoquinolin-1(2H)-one], for which the AC50 in test [1] and in test [2] was 10 to 1000 nM each time. In test [3], the IC50 was less than 10 nM.
As to `CCOc1cc([C@H](C)N2CCc3c(cc(CCN4CC(F)C4)cc3-c3cn(C)c(=O)cc3C(F)(F)F)C2=O)ncc1C#N` [Example 249], the AC50 in test [1] and in test [2] was 10 to 1000 nM in each case. Besides, in test [3], the IC50 lay in the range of 10 to 1000 nM.
Regarding `CCOc1cc([C@H](C)N2CCc3c(cc(CCN(C)C4COC4)cc3-c3ccc(F)nc3C)C2=O)ncc1C#N` [Example 253], the AC50 in test [1] and in test [2] was 10 to 1000 nM throughout. Besides, the IC50 in test [3] lay in the range of 10 to 1000 nM.
In the case of `CNc1nccn1Cc1cc(Br)c2ccn(Cc3ccc(F)c(OC)c3)c(=O)c2c1` [Example 99, 5-bromo-2-(4-fluoro-3-methoxybenzyl)-7-((2-(methylamino)-1H-imidazol-1-yl)methyl)isoquinolin-1(2H)-one], the AC50 in test [1] and in test [2] was 10 to 1000 nM in each case. For the same compound, the IC50 in test [3] lay within 10 to 1000 nM.
On to `CCOc1cc([C@H](C)N2CCc3c(cc(Cn4ccnc4C)cc3-c3cn(C)c(=O)c(F)c3C)C2=O)ncc1C#N` [Example 287], for which the AC50 in test [1] and in test [2] was 10 to 1000 nM each time. Further, the IC50 in test [3] was less than 10 nM.
On to `CCOc1cc(C(C)N2CCc3c(cc(CCN(C)CC)cc3-c3cc(C)nn3C)C2=O)ncc1C#N` (stereo not drawn) [Example 205, 6-(1-(5-(1,3-dimethyl-1H-pyrazol-5-yl)-7-(2-(ethyl(methyl)amino)ethyl)-1-oxo-3,4-dihydroisoquinolin-2(1H)-yl)ethyl)-4-ethoxynicotinonitrile], for which the AC50 in test [1] and in test [2] was 10 to 1000 nM throughout. In addition, the IC50 in test [3] was in the range of 10 to 1000 nM.
